Experiments:
KINGS1 = assay: Western blot of global histone modifications; format: cell-based; settings: KINGS1, 5 μM, 96 h
Procedure: The effects of S2172 on global histone modifications in GSCs were examined using western blot analysis. GSC cells were treated with 5 μM of S2172 since […] of the cells are still viable at this concentration (Fig. 2, Supplementary Fig. S1E). […] Treatment of GSCs with S2172 increased the overall levels of H3K4me2 as well as H3K9me2. However, these changes were not statistically significant (Fig. 2A, B). […]
instructions. For GSC cells, the CellTiter-Glo 3D Viability Assay (Promega, Madison, WI, USA) was used to measure the living cells. All proliferation experiments were repeated […]
(§1) The density of bands was quantified using ImageJ software (https://imagej.nih.gov/ij/). […]
(§2) When mice were scanned with MRI, mice were anesthetized with isoflurane (3% in air) and placed in MRS 3017 Benchtop MRI Systems (MR Solutions, Guildford, UK). Using MRI images, tumor volumes were obtained by compiling tumor areas from all slices that contained tumors and calculated by ImageJ software (https://imagej.nih.gov/ij/) {Towner, […]
B. Western blot analysis of LSD1,MYC, Nestin, SOX2,and ACTB in same cells as shown in panel A. ACTB was used as a loading control. […] Quantification of signal intensities of the Western blot (right panel). […] Right panel: Quantification of band signal intensities from the Western blot. […]

[1] = tested on: GSC1228, GSC222, and GSC316; assay: Western blot of global histone modifications; format: cell-based; settings: 5 μM, 96 h; changes not statistically significant
Procedure: The effects of S2172 on global histone modifications in GSCs were examined using western blot analysis. GSC cells were treated with 5 μM of S2172 since […] of the cells are still viable at this concentration (Fig. 2, Supplementary Fig. S1E). […] Treatment of GSCs with S2172 increased the overall levels of H3K4me2 as well as H3K9me2. However, these changes were not statistically significant (Fig. 2A, B).
Fig. 2 S2172 affected H3K4me2 modifications. A Western blot analysis of H3K4me1, H3K4me2, H3K4me3, H3K9me2, and H3 after treatment with either DMSO or S2172 (5 μM) for 96 h in GSC1228, GSC222, and GSC316. Histone H3 was used as the loading control. B Quantification of band signal intensities from the western blot of A. The y-axis in the panel indicates relative signal intensity of each protein normalized to histone H3. Error bars indicate the SD. […]
as §1, §2

For `NC1CCC(NC2CC2c2cc(F)cc(F)c2OCc2ccccc2)CC1` (centres unmarked) [S2172], the “levels of H3K4me1, H3K4me2, H3K4me3, and H3K9me2” value (KINGS1) was “slight increase” and the “overall levels of H3K4me2 and H3K9me2” value [1] was “increased”.

— article PMC11645267, “Novel pharmacologic inhibition of lysine-specific demethylase 1 as a potential therapeutic for glioblastoma” (Cancer Gene Therapy, 2024)
